From the Kinase Knowledgebase extract (Sharma et al. 2016)
Converted amounts (≈) assume the structure as drawn.

Assays:
EGFR (human) [1] = target: EGFR (human) (UniProt P00533); settings: hn5
EGFR (murine) [2] = target: EGFR (murine) (UniProt P00533); settings: f/l herc cells
EGFR (murine) [3] = target: EGFR (murine) (UniProt P00533); settings: nih 3t3
MAPK14 [4] = target: MAPK14 (UniProt Q16539); assay: MAPK14 Kinase Inhibition
EGFR [5] = target: EGFR (UniProt P00533)
EGFR (human) [6] = target: EGFR (human) (UniProt P00533)
EGFR (mouse) = EGFR (mouse) (UniProt P00533); settings: swiss 3t3 fibroblast
MAPK14 (human) [7] = target: MAPK14 (human) (UniProt Q16539); assay: TNF Inhibition (PBMC); settings: for inhibition: concentration not given here
EGFR [8] = target: EGFR (UniProt P00533); remark: listed apart in the source
MAPK14 (human) [9] = target: MAPK14 (human) (UniProt Q16539); assay: p38-alpha Kinase Inhibition; settings: COS-1
EGFR (human) [10] = target: EGFR (human) (UniProt P00533); remark: listed apart in the source
MAPK14 [11] = target: MAPK14 (UniProt Q16539); assay: Inhibition of p38 Kinase Activity
MAPK14 [12] = target: MAPK14 (UniProt Q16539); assay: p38 Inhibition
MAPK14 [13] = target: MAPK14 (UniProt Q16539); assay: p38 Inhibition Assay (in Vitro)
ROCK2 = ROCK2 (UniProt O75116); assay: Inhibition of ROCK2 Kinase Activity; settings: for inhibition: concentration not given here
EGFR [14] = target: EGFR (UniProt P00533); remark: listed apart in the source
PIK3CG = PIK3CG (UniProt P48736); assay: Inhibition of PIK3CG Kinase Activity
PIK3CG (murine) = assay: Inhibition of C5a-Mediated AKT Phosphorylation in Raw 264.7 Macrophages
MAPK14 (human) [15] = target: MAPK14 (human) (UniProt Q16539); assay: Inhibition of TNF-alpha Production in LPS Stimulated Whole Blood; settings: blood cells
EGFR (Balb/c mice) = EGFR (Balb/c mice) (UniProt P00533)
[16] = target: EGFR (Human), P00533 [T790M/L858R]
CDK2 (human) = CDK2 (human) (UniProt P24941); assay: Enzyme Assay; settings: concentration not given here
ROCK2 (human) = ROCK2 (human) (UniProt O75116); assay: Inhibition of ROCK2 Kinase Activity; settings: concentration not given here
EGFR [17] = target: EGFR (UniProt P00533); settings: concentration not given here

Sequence of MAPK14 (human) (Q16539 whole entry, looked up): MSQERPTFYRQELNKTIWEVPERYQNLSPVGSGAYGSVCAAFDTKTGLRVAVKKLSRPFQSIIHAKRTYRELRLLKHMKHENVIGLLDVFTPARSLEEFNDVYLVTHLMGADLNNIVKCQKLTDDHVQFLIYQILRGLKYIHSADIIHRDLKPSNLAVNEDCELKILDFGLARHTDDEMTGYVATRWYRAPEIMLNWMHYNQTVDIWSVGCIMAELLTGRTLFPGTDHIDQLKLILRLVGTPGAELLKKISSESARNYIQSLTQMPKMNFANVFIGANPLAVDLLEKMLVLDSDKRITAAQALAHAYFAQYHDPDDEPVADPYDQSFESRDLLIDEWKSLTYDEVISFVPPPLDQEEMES
Sequence of MAPK14 (Q16539 whole entry, looked up): as above
Sequence of ROCK2 (O75116 whole entry, looked up): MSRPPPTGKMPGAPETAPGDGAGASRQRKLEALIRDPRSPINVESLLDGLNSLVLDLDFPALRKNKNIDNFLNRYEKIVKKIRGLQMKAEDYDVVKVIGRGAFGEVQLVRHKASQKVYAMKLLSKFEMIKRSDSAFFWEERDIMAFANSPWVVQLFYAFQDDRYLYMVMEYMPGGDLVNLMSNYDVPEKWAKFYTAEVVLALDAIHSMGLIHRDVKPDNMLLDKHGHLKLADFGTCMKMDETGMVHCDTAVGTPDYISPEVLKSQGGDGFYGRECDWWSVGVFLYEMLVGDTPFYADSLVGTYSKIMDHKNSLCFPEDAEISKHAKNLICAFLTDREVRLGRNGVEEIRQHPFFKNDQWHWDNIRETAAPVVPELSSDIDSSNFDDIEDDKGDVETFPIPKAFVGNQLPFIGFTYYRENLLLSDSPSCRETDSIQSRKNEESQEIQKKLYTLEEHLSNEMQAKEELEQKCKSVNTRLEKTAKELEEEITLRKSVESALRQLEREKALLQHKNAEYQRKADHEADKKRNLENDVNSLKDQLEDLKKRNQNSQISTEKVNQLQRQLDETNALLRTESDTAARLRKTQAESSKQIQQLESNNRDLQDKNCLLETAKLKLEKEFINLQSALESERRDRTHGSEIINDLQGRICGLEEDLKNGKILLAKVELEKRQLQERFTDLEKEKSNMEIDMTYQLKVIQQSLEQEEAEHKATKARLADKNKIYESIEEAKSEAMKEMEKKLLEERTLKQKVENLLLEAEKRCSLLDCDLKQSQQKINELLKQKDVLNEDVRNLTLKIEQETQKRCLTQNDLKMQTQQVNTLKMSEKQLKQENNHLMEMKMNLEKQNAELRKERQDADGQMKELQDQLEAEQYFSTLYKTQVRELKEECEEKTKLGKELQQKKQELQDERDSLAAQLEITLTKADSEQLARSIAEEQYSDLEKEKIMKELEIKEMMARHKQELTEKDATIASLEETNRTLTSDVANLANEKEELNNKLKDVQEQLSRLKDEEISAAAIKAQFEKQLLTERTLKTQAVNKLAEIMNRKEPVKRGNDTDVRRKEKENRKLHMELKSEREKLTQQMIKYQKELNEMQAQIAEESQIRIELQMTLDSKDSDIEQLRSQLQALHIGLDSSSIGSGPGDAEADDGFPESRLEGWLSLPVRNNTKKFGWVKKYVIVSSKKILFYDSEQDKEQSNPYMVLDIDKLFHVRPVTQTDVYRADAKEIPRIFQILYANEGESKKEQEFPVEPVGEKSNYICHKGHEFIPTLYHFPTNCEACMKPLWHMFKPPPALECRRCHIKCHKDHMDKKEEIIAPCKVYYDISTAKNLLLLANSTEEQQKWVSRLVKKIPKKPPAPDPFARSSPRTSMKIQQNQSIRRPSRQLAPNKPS
Sequence of EGFR (murine) (P00533 whole entry, looked up): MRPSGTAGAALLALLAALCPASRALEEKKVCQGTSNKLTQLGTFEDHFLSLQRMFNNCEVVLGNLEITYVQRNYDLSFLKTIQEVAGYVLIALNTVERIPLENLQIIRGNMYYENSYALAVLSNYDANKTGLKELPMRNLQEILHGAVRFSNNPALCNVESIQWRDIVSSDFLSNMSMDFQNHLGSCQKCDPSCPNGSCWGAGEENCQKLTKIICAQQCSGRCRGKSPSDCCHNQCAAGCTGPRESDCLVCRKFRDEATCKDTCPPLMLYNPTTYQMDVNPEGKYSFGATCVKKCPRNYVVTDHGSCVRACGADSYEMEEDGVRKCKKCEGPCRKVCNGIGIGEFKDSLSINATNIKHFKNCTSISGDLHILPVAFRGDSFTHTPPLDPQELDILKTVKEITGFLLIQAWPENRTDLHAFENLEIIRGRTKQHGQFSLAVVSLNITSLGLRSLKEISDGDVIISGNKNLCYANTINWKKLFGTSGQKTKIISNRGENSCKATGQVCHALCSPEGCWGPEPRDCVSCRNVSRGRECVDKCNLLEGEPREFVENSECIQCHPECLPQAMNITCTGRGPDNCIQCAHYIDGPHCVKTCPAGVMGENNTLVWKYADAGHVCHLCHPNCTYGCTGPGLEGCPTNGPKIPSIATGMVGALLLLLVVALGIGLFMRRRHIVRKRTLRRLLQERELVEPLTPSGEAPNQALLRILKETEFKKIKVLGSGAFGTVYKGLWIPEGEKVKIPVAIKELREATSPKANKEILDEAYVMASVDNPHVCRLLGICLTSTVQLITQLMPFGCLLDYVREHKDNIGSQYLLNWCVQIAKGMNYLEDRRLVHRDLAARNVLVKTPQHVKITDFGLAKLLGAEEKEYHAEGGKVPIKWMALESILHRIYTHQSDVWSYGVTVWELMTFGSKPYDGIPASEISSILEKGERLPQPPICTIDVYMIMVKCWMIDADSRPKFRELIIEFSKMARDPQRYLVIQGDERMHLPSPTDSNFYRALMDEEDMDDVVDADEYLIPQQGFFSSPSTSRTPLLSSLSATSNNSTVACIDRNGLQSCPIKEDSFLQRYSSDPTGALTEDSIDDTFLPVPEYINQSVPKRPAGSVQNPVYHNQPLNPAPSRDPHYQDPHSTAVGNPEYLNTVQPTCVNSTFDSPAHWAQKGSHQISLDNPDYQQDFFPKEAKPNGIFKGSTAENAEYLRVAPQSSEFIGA
Sequence of EGFR (human) (P00533 whole entry, looked up): as above
Sequence of ROCK2 (human) (O75116 whole entry, looked up): as the sequence (O75116 whole entry, looked up) above

CN(C)C(=O)[C@@H]1CCCN1Cc1ccc(-c2cc3c(Nc4ccc(OCc5ccccc5)cc4)ncnc3cn2)o1
IC50 (EGFR (human) [1]): 3300 nM

CCOC(=O)CN1CCC[C@H]1COc1cc2c(Nc3cccc(Br)c3)ncnc2cc1OC
IC50 (EGFR (murine) [2]): 20 nM

COC(=O)Nc1nc2ccc(Oc3ccccc3)nc2[nH]1
IC50 (EGFR (murine) [3]): > 100000 nM

CSc1nccc(-c2cccnc2-c2ccc(F)cc2)n1
IC50 (MAPK14 [4]): < 50000 nM

Cc1cccc(Nc2ncnc3ccc(N(C)C(=O)NCCCl)cc23)c1
IC50 (EGFR [5]): 1690 nM

COc1nccc(-c2cccnc2-c2ccc(F)cc2)n1
IC50 (MAPK14 [4]): < 50000 nM

CCOC(=O)Nc1nc2ccc(Oc3ccccc3)nc2[nH]1
IC50 (EGFR (murine) [3]): > 100000 nM

O=C(/C=C/CN1CC2CC1CO2)Nc1cc2c(Nc3ccc(F)c(Cl)c3)ncnc2cc1OCC1CC1 (centres undefined)
IC50 (EGFR (human) [6]): 1.5 nM

Cn1c(SSc2c(C(=O)Nc3ccccc3)c3ccccc3n2C)c(C(=O)Nc2ccccc2)c2ccccc21
IC50 (EGFR (mouse)): > 100000 nM

COc1ccc2c(-c3ccncc3)c(-c3ccc(F)cc3)[nH]c2c1
IC50 (MAPK14 (human) [7]): 400 nM

N#Cc1cnc2cc3c(cc2c1Nc1ccc(F)c(Cl)c1)N(C(=O)/C=C/CBr)CCO3.N#Cc1cnc2cc3c(cc2c1Nc1ccc(F)c(Cl)c1)N(C(=O)/C=C/CCl)CCO3
IC50 (EGFR [8]): 1000 nM
inhibition (EGFR [8]; concentration not given here): 29.9%

Cc1ccccc1Cc1ccc(Nc2ccc(F)cc2C)cc1Cl
IC50 (MAPK14 (human) [9]): > 100000 nM

Brc1cccc(Nc2ncnc3cc4c(cc23)OC(CN2CCOCC2)CO4)c1 (centres undefined)
IC50 (EGFR (human) [10]): 0.046 µg/mL (≈ 0.101 µM)

O=C(NCc1ccc(S(=O)(=O)NNC(=O)c2csc(-c3ccc(C4SCCS4)cc3)n2)s1)c1ccc(Cl)cc1
IC50 (MAPK14 [11]): > 30000 nM
IC50 (MAPK14 [12]): > 30000 nM

Fc1ccc(-c2[nH]c3ccccc3c2-c2ccncc2)cc1
IC50 (MAPK14 (human) [7]): > 10000 nM

CN(C)CCCCN1CCOc2cc3ncc(C#N)c(Nc4ccc(F)c(Cl)c4)c3cc21
IC50 (EGFR [8]): 5 nM

CN1CCN(CC2COc3cc4ncnc(Nc5cccc(Br)c5)c4cc3O2)CC1 (centres undefined)
IC50 (EGFR (human) [10]): 0.058 µg/mL (≈ 0.123 µM)

O=C(NCc1ccc(S(=O)(=O)N2CCC(Nc3cccc(S(=O)(=O)C(F)(F)F)c3)CC2)s1)c1ccc(Cl)cc1
IC50 (MAPK14 [13]): > 30000 nM

O=c1[nH]c2ccc(Sc3ccccc3)nc2[nH]1
IC50 (EGFR (murine) [3]): > 100000 nM

CN1C(=S)C(C(=O)Nc2ccccc2)c2ccccc21 (centres undefined)
IC50 (EGFR (mouse)): > 100000 nM

O=C(/C=C/CN1CC2CC1CO2)Nc1cc2c(Nc3ccc(F)c(Cl)c3)ncnc2cc1OC1CCCC1 (centres undefined)
IC50 (EGFR (human) [6]): 0.5 nM

Nc1ccc2c(-c3ccncc3)c(-c3ccc(F)cc3)[nH]c2c1
IC50 (MAPK14 (human) [7]): 200 nM

O=C(CCCNc1ncc(C(F)(F)F)cc1Cl)NNS(=O)(=O)c1ccc(CNC(=O)c2ccccc2O)s1
IC50 (MAPK14 [11]): > 30000 nM

NS(=O)(=O)c1ccc(Nc2nc(OCC3CCCCC3)c3nc[nH]c3n2)cc1
IC50 (ROCK2): 600 nM

CCOC(=O)CN1CCN(CCCOc2cc3c(Nc4cccc(Br)c4)ncnc3cc2OC)C(O)C1 (centres undefined)
IC50 (EGFR (murine) [2]): 33 nM

COc1cccc2c(C(=O)Nc3ccccc3)c(SSc3c(C(=O)Nc4ccccc4)c4cccc(OC)c4n3C)n(C)c12
IC50 (EGFR (mouse)): > 100000 nM

CS(=O)(=O)NCCNCc1ccc(-c2cc3c(Nc4ccc(OCc5ccccc5)cc4)ncnc3cn2)o1
IC50 (EGFR (human) [1]): 720 nM

N#Cc1cnc2c(sc3ccc(N)cc32)c1Nc1cccc(Br)c1
IC50 (EGFR [14]): 10000 nM

N#C/C(=C1/Nc2ccccc2S1)c1ccnc(NCCc2cccnc2)n1
IC50 (ROCK2): 5000 to 10000 nM
IC50 (PIK3CG): > 10000 nM

CN(C)CCCC(=O)N1CCOc2cc3ncc(C#N)c(Nc4ccc(F)c(Cl)c4)c3cc21
IC50 (EGFR [8]): 200 nM

O=C1NC(=O)/C(=C/c2ccc3ncnc(N4CCCCC4)c3c2)S1
inhibition (PIK3CG (murine)): 100%

COC(=O)CCC1CN(CC(=O)OC)CCN1CCOc1cc2c(Nc3cccc(Br)c3)ncnc2cc1OC (centres undefined)
IC50 (EGFR (murine) [2]): 77 nM

N=C1NC(=O)/C(=C/c2ccc3nccnc3c2)S1
inhibition (PIK3CG (murine)): 100%

Nc1nccc(-c2cccnc2-c2ccc(F)cc2)n1
IC50 (MAPK14 [4]): < 50000 nM

O=C1NC(=O)/C(=C/c2ccc3nsnc3c2)S1
inhibition (PIK3CG (murine)): 100%

N#Cc1cnc2c(sc3ccc([N+](=O)[O-])cc32)c1Nc1cccc(Br)c1
IC50 (EGFR [14]): 10000 nM

O=C(/C=C/CN1CC2CC1CO2)Nc1cc2c(Nc3ccc(F)c(Cl)c3)ncnc2cc1O[C@H]1CCOC1 (some centres undefined)
IC50 (EGFR (human) [6]): 0.5 nM

N#Cc1cnc2cc3nc[nH]c3cc2c1Nc1cccc(Br)c1
IC50 (EGFR [14]): 1.5 nM

COc1ccc2c(C(=O)Nc3ccccc3)c(SSc3c(C(=O)Nc4ccccc4)c4ccc(OC)cc4n3C)n(C)c2c1
IC50 (EGFR (mouse)): > 100000 nM

O=C(CCCNc1ncc(C(F)(F)F)cc1Cl)NNS(=O)(=O)c1ccc(CNC(=O)c2ccc(Cl)cc2)cc1
IC50 (MAPK14 [11]): > 30000 nM
IC50 (MAPK14 [12]): > 30000 nM

C=CCOCCn1c(SC)nc(-c2ccc(F)cc2)c1-c1ccnc(NC(C)=O)c1
IC50 (MAPK14 (human) [15]): > 100000 nM

Fc1ccc(-c2ncccc2-c2ccnc(Oc3ccccc3)n2)cc1
IC50 (MAPK14 [4]): < 50000 nM

Cn1c(SSc2c(C(=O)Nc3ccccc3)c3cccnc3n2C)c(C(=O)Nc2ccccc2)c2cccnc21
IC50 (EGFR (mouse)): > 25000 nM

OCCNCC1COc2cc3ncnc(Nc4cccc(Br)c4)c3cc2O1 (centres undefined)
IC50 (EGFR (human) [10]): 0.022 µg/mL (≈ 0.051 µM)

CC(=O)OCCCCc1nc(-c2ccncc2)c(-c2ccc(F)cc2)n1COCC[Si](C)(C)C
inhibition (MAPK14 (human) [7]): 0%

Oc1cc2nc(-c3cccs3)c(-c3cccs3)nc2cc1O
inhibition (ROCK2): -18%

CCOC(=O)CN(C)CCOc1cc2c(Nc3cccc(Br)c3)ncnc2cc1OC
IC50 (EGFR (murine) [2]): 100 nM

OCc1ccc(-c2cc3c(Nc4ccc(OCc5ccccc5)cc4)ncnc3cn2)o1
IC50 (EGFR (human) [1]): 460 nM

NC(=O)[C@H]1CCCN1Cc1ccc(-c2cc3c(Nc4ccc(OCc5ccccc5)cc4)ncnc3cn2)o1
IC50 (EGFR (human) [1]): 350 nM

O=C(NCc1ccc(S(=O)(=O)N2CCC(C(=O)c3ccc(F)cc3F)CC2)s1)c1ccc(Cl)cc1
IC50 (MAPK14 [13]): > 30000 nM

O=C(NCc1ccc(S(=O)(=O)N2CCN(c3ncccn3)CC2)s1)c1ccc(Cl)cc1
IC50 (MAPK14 [13]): > 30000 nM

C[Si](C)(C)CCOCn1c(CCCCO)nc(-c2ccncc2)c1-c1ccc(F)cc1
inhibition (MAPK14 (human) [7]): 0%

C=CC(=O)Nc1ccc2sc3c(Nc4cccc(Br)c4)c(C#N)cnc3c2c1
IC50 (EGFR [14]): 10000 nM

Cc1ccc2ncnc(Nc3cccc(Cl)c3)c2c1
LD50 (EGFR (Balb/c mice)): > 400 mg/kg

O=C(NCc1ccc(S(=O)(=O)NNC(=O)c2csc(COc3ccccc3Cl)n2)s1)c1ccc(Cl)cc1
IC50 (MAPK14 [11]): > 30000 nM
IC50 (MAPK14 [12]): > 30000 nM

C=CC(=O)N[C@@H]1CCCC[C@H](Nc2nc(Nc3cnn(C)c3)ncc2Cl)C1
IC50 [16]: 10 to 100 nM

O=C(/C=C/N1CC2CC1CO2)Nc1cc2c(Nc3ccc(F)c(Cl)c3)ncnc2cc1O[C@H]1CCOC1 (some centres undefined)
IC50 (EGFR (human) [6]): 0.5 nM

CCOC(=O)CN(CCOc1cc2c(Nc3cccc(Br)c3)ncnc2cc1OC)CC(=O)OCC
IC50 (EGFR (murine) [2]): 70 nM

NC(=O)c1cccn(Cc2ccc(S(=O)(=O)NNC(=O)CCCNc3ncc(C(F)(F)F)cc3Cl)s2)c1=O
IC50 (MAPK14 [11]): > 30000 nM

O=C(NCc1ccc(S(=O)(=O)N2CCC(n3nnc4ccccc43)CC2)s1)c1ccc(Cl)cc1
inhibition (CDK2 (human)): 1%
inhibition (ROCK2 (human)): -1%
IC50 (MAPK14 [13]): > 30000 nM

Cc1cccc(Nc2ncnc3ccc(N)cc23)c1
IC50 (EGFR [5]): 1000 nM

O=C1NC(=O)/C(=C/c2ccc3c(c2)OCO3)S1
inhibition (PIK3CG (murine)): 100%

CN(C(=O)NCCCl)c1ccc2ncnc(Nc3cccc(Br)c3)c2c1
IC50 (EGFR [5]): 156 nM

CN(CC(N)=O)Cc1ccc(-c2cc3c(Nc4ccc(OCc5ccccc5)cc4)ncnc3cn2)o1
IC50 (EGFR (human) [1]): 350 nM

C=CC(=O)Nc1ccc(F)c(Nc2nc(Nc3cn(C)nc3C)ncc2Cl)c1
IC50 [16]: < 10 nM

NC(=O)c1c(NC(=O)Nc2ccccc2)sc2cc(O)ccc12
inhibition (ROCK2): > 50%
inhibition (EGFR [17]): > 50%

Cc1ccccc1Nc1nccc(-c2cccnc2-c2ccc(F)cc2)n1
IC50 (MAPK14 [4]): < 50000 nM

O=c1[nH]c2ccc(Oc3ccccc3)nc2[nH]1
IC50 (EGFR (murine) [3]): > 100000 nM

CN(C(=O)NCCCl)c1ccc2ncnc(Nc3cccc(Cl)c3)c2c1
IC50 (EGFR [5]): 81 nM

OCCN(CCO)CC1COc2cc3ncnc(Nc4cccc(Br)c4)c3cc2O1 (centres undefined)
IC50 (EGFR (human) [10]): 0.021 µg/mL (≈ 0.0442 µM)

O=C(NCc1ccc(S(=O)(=O)N2CCN(C(=O)N3C=Cc4oncc4C3)CC2)s1)c1ccc(Cl)cc1
IC50 (MAPK14 [13]): > 30000 nM
